According to patent US20240116985A1, “STAPLED PEPTIDES AND METHODS THEREOF” (priority 2020, published 2024):

What follows are compounds tested against T1, full-length beta-Catenin (Uniprot ID P35222) (Homo sapiens, UniProt P35222) (assay: Fluorescence polarization IC50 (beta-catenin / 5FAM-TCF4 10-53 competition)). Settings: beta-Catenin FP IC50, fluorescence polarization.
T1 construct: 10 nM full-length beta-Catenin (Uniprot ID P35222)
T1 sequence (P35222 1-781): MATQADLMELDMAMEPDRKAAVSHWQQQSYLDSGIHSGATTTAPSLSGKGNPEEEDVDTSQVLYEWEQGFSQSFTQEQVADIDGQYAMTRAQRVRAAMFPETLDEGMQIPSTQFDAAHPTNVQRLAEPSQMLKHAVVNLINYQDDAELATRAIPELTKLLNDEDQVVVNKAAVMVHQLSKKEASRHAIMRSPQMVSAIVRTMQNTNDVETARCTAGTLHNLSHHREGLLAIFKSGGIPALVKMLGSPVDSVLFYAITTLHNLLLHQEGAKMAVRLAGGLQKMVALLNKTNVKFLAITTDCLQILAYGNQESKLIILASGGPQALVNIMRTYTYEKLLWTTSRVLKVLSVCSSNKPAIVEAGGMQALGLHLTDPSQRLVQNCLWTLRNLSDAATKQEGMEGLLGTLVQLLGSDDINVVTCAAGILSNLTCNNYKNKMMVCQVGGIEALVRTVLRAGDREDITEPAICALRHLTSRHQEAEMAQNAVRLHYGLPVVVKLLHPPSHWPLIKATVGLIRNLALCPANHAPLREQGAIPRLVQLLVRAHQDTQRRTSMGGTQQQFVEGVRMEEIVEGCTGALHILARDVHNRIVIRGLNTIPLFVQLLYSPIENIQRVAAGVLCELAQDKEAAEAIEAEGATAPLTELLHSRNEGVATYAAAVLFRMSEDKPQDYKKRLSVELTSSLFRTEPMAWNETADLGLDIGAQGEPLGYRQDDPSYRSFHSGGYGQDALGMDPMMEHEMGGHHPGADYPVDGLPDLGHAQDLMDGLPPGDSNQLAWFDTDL
Type: binding

SMILES	IC50 [nM]
CC(=O)N1CCC[C@]12CC=CCCCC1(CCCC=CCCCOC(=O)N3CC[C@@](C(=O)N[C@@H](Cc4ccsc4)C(=O)N[C@@H](Cc4csc5ccccc45)C(=O)N[C@@H](CC(C)C)C(N)=O)(C3)NC(=O)[C@H](CC(C)C)NC(=O)[C@H](Cc3ccccc3)NC(=O)[C@H](C)NC(=O)[C@H](C)NC(=O)[C@H](CC(=O)O)NC(=O)[C@H](CC(=O)O)NC1=O)NC(=O)[C@H](CC(N)=O)NC(=O)[C@H](CC(=O)O)NC2=O (stereo partly drawn) [I-1413, Ac-PL3-Asp-Asn-B5-Asp-Asp-Ala-Ala-Phe-Leu-PyrS2-3Thi-BztA-Leu-NH2]	74

Same assay, conditions: fluorescence polarization, beta-catenin; read-out: FP EC50

SMILES	IC50 [nM]
CC(=O)N1CCC[C@]12CC=CCCCC1(CCCC=CCCCOC(=O)N3CC[C@@](C(=O)N[C@@H](Cc4ccccc4Cl)C(=O)N[C@@H](Cc4csc5ccccc45)C(=O)N[C@@H](CC(C)C)C(N)=O)(C3)NC(=O)[C@H](CC(C)C)NC(=O)[C@H](Cc3ccccc3)NC(=O)[C@H](C)NC(=O)[C@H](C)NC(=O)[C@H](CC(=O)O)NC(=O)[C@H](CC(=O)O)NC1=O)NC(=O)[C@H](CC(C)C)NC(=O)[C@H](CC(=O)O)NC2=O (stereo partly drawn) [I-1419, Ac-PL3-Asp-Leu-B5-Asp-Asp-Ala-Ala-Phe-Leu-PyrS2-2C1F-BztA-Leu-NH2]	152

Same assay, conditions: fluorescence polarization; read-out: beta-Catenin FP IC50

SMILES	IC50 [nM]
CC(=O)N1CCC[C@]12CC=CCCCC1(CCCC=CCCCOC(=O)N3CC[C@@](C(=O)N[C@@H](Cc4ccccc4Cl)C(=O)N[C@@H](Cc4csc5ccccc45)C(=O)N[C@H](CO)CC(C)C)(C3)NC(=O)[C@H](CC(C)C)NC(=O)[C@H](Cc3ccccc3)NC(=O)[C@H](C)NC(=O)[C@H](C)NC(=O)[C@H](CC(=O)O)NC(=O)[C@H](CC(=O)O)NC1=O)NC(=O)[C@H](CC(C)(C)C)NC(=O)[C@H](CC(=O)O)NC2=O (stereo partly drawn) [I-1251, Ac-PL3-Asp-Npg-B5-Asp-Asp-Ala-Ala-Phe-Leu-PyrS2-2C1F-BztA-Leuo1]	1940
CC(=O)N1CCC[C@]12CC=CCCCC1(CCCC=CCCCOC(=O)N3CC[C@@](C(=O)N[C@@H](Cc4ccsc4)C(=O)N[C@@H](Cc4c[nH]c5cccc(Cl)c45)C(=O)N[C@@H](CCC(N)=O)C(N)=O)(C3)NC(=O)[C@H](CC(C)C)NC(=O)[C@H](Cc3ccccc3)NC(=O)[C@H](C)NC(=O)[C@H](C)NC(=O)[C@H](CC(=O)O)NC(=O)[C@H](CC(=O)O)NC1=O)NC(=O)[C@H](CC(C)(C)C)NC(=O)[C@H](CC(=O)O)NC2=O (stereo partly drawn) [I-2177, Ac-PL3-Asp-Npg-B5-Asp-Asp-Ala-Ala-Phe-Leu-PyrS2-3Thi-4C1W-Gln-NH2]	253
CC(=O)N1CCC[C@]12CC=CCCCC1(CCCC=CCCCOC(=O)N3CC[C@@](C(=O)N[C@@H](Cc4ccccc4Cl)C(=O)N[C@@H](Cc4csc5ccccc45)C(=O)N[C@@H](CC(C)C)C(N)=O)(C3)NC(=O)[C@H](CC(C)C)NC(=O)[C@H](Cc3ccccc3)NC(=O)[C@H](C)NC(=O)[C@H](C)NC(=O)[C@H](CC(=O)O)NC(=O)[C@H](CC(=O)O)NC1=O)NC(=O)[C@H](CC(C)C)NC(=O)[C@H](CC(=O)O)NC2=O (stereo partly drawn) [I-1419, Ac-PL3-Asp-Leu-B5-Asp-Asp-Ala-Ala-Phe-Leu-PyrS2-2C1F-BztA-Leu-NH2]	152
CC(=O)N1CCC[C@]12CCCCCC1(CCCCCCCOC(=O)N3CC[C@@](C(=O)N[C@@H](Cc4ccsc4)C(=O)N[C@@H](Cc4csc5ccccc45)C(=O)N[C@@H](CCC(N)=O)C(N)=O)(C3)NC(=O)[C@H](CC(C)C)NC(=O)[C@H](Cc3ccccc3)NC(=O)[C@H](C)NC(=O)[C@H](C)NC(=O)[C@H](CC(=O)O)NC(=O)[C@H](CC(=O)O)NC1=O)NC(=O)[C@H](CC(C)(C)C)NC(=O)[C@H](CC(=O)O)NC2=O (stereo partly drawn) [I-1975, Ac-PL3-Asp-Npg-B4-Asp-Asp-Ala-Ala-Phe-Leu-PyrS2-3Thi-BztA-Gln-NH2]	745
CC(=O)N1CCC[C@]12CC=CCCCC1(CCCC=CCCCOC(=O)N3CC[C@@](C(=O)N[C@@H](Cc4ccsc4)C(=O)N[C@@H](Cc4csc5ccccc45)C(=O)N[C@@H](CCC(N)=O)C(N)=O)(C3)NC(=O)[C@H](Cc3c[nH]c4ccccc34)NC(=O)[C@H](Cc3ccccc3)NC(=O)[C@H](C)NC(=O)[C@H](C)NC(=O)[C@H]([C@@H](C)O)NC(=O)[C@H](CC(N)=O)NC1=O)NC(=O)[C@H](CC(C)(C)C)NC(=O)[C@H](CC(=O)O)NC2=O (stereo partly drawn) [I-1741, Ac-PL3-Asp-Npg-B5-Asn-Thr-Ala-Ala-Phe-Trp-PyrS2-3Thi-BztA-Gln-NH2]	4390

Other lines, results leading:

IC50 [nM]	SMILES
285	CC(=O)N1CCC[C@]12CC=CCCCC1(CCCC=CCCCOC(=O)N3CC[C@@](C(=O)N[C@@H](Cc4ccsc4)C(=O)N[C@@H](Cc4csc5ccccc45)C(=O)N[C@@H](CCC(N)=O)C(N)=O)(C3)NC(=O)[C@H](CC(N)=O)NC(=O)[C@H](Cc3ccccc3)NC(=O)[C@H](CCCCNC(C)C)NC(=O)[C@H](C)NC(=O)[C@H]([C@@H](C)O)NC(=O)[C@H](CC(N)=O)NC1=O)NC(=O)[C@H](CC(C)(C)C)NC(=O)[C@H](CC(=O)O)NC2=O (stereo partly drawn) [I-2006, Ac-PL3-Asp-Npg-B5-Asn-Thr-Ala-iPrLys-Phe-Asn-PyrS2-3Thi-BztA-Gln-NH2]
417	COc1cccc(C[C@@H]2NC(=O)[C@H](C)NC(=O)[C@H](CCCCNC(C)C)NC(=O)[C@H](CCC(N)=O)NC(=O)[C@H](CC(=O)O)NC(=O)C3(CCCC=CCCCOC(=O)N4CC[C@@](C(=O)N[C@@H](Cc5ccccc5)C(=O)N[C@@H](Cc5csc6ccccc56)C(=O)N[C@@H](CCO)C(N)=O)(C4)NC(=O)[C@H](CC(N)=O)NC2=O)CCCC=CC[C@]2(CCCN2C(C)=O)C(=O)N[C@@H](CC(N)=O)C(=O)N[C@@H](CC2CCCCC2)C(=O)N3)c1 (stereo partly drawn) [I-1926, Ac-PL3-Asn-Cha-B5-Asp-Gln-iPrLys-Ala-3OMeF-Asn-PyrS2-Phe-BztA-Hse-NH2]
1270	CC(=O)N1CCC[C@]12CC=CCCCC1(CCCC=CCCCOC(=O)N3CC[C@@](C(=O)N[C@@H](Cc4ccccc4)C(=O)N[C@@H](Cc4csc5ccccc45)C(=O)N[C@@H](CCC(N)=O)C(N)=O)(C3)NC(=O)[C@H](CC(C)C)NC(=O)[C@H](Cc3ccccc3)NC(=O)[C@H](C)NC(=O)[C@H](CCCCNC(C)C)NC(=O)[C@H](CCO)NC(=O)[C@H](CC(=O)O)NC1=O)NC(=O)[C@H](CC1CCCCC1)NC(=O)[C@H](CC(N)=O)NC2=O (stereo partly drawn) [I-2345, Ac-PL3-Asn-Cha-B5-Asp-Hse-iPrLys-Ala-Phe-Leu-PyrS2-Phe-BztA-Gln-NH2]
29	CC(=O)N1CCC[C@]12CC=CCCCC1(CCCC=CCCCOC(=O)N3CC[C@@](C(=O)N[C@@H](Cc4ccsc4)C(=O)N[C@@H](Cc4csc5ccccc45)C(=O)N[C@@H](CCC(N)=O)C(N)=O)(C3)NC(=O)[C@H](CC(C)C)NC(=O)[C@H](Cc3ccccc3)NC(=O)[C@H](C)NC(=O)[C@H](C)NC(=O)[C@H](CN3CCCC[C@H]3C(=O)O)NC(=O)[C@H](CC(=O)O)NC1=O)NC(=O)[C@H](CC(C)(C)C)NC(=O)[C@H](CC(=O)O)NC2=O (stereo partly drawn) [I-1968, Ac-PL3-Asp-Npg-B5-Asp-S2COOPipA-Ala-Ala-Phe-Leu-PyrS2-3Thi-BztA-Gln-NH2]
87	CC(=O)N1CCC[C@]12CC=CCCCC1(CCCC=CCCCOC(=O)N3CC[C@@](C(=O)N[C@@H](Cc4ccsc4)C(=O)N[C@@H](Cc4csc5ccccc45)C(=O)N[C@@H](CCC(N)=O)C(N)=O)(C3)NC(=O)[C@H](CC(C)C)NC(=O)[C@H](Cc3ccccc3)NC(=O)[C@H](CC(=O)N3CCN(C)CC3)NC(=O)[C@H](C)NC(=O)[C@H](CC(=O)O)NC(=O)[C@H](CC(=O)O)NC1=O)NC(=O)[C@H](CC(C)(C)C)NC(=O)[C@H](CC(=O)O)NC2=O (stereo partly drawn) [I-1508, Ac-PL3-Asp-Npg-B5-Asp-Asp-Ala-MePpzAsn-Phe-Leu-PyrS2-3Thi-BztA-Gln-NH2]
640	CC(=O)N1CCC[C@]12CC=CCCCC1(CCCC=CCCCOC(=O)N3CC[C@@](C(=O)N[C@@H](Cc4ccccc4)C(=O)N[C@@H](Cc4csc5ccccc45)C(=O)N[C@@H](CCO)C(N)=O)(C3)NC(=O)[C@H](CC(C)C)NC(=O)[C@H](Cc3ccccc3)NC(=O)[C@H](C)NC(=O)[C@H](CCCCNC(C)C)NC(=O)[C@H](CCC(N)=O)NC(=O)[C@H](CC(=O)O)NC1=O)NC(=O)[C@H](CC(C)(C)C)NC(=O)[C@H](CC(N)=O)NC2=O (stereo partly drawn) [I-1646, Ac-PL3-Asn-Npg-B5-Asp-Gln-iPrLys-Ala-Phe-Leu-PyrS2-Phe-BztA-Hse-NH2]
45	CC(=O)N1CCC[C@]12CC=CCCCC1(CCCC=CCCCOC(=O)N3CC[C@@](C(=O)N[C@@H](Cc4ccccc4Cl)C(=O)N[C@@H](Cc4csc5ccccc45)C(=O)N[C@@H](CCC(N)=O)C(N)=O)(C3)NC(=O)[C@H](CO)NC(=O)[C@H](Cc3ccccc3)NC(=O)[C@H](CC(C)C)NC(=O)[C@H](C)NC(=O)[C@H](CC(=O)O)NC(=O)[C@H](CC(=O)O)NC1=O)NC(=O)[C@H](Cc1ccccc1)NC(=O)[C@H](CC(=O)O)NC2=O (stereo partly drawn) [I-1154, Ac-PL3-Asp-Phe-B5-Asp-Asp-Ala-Leu-Phe-Ser-PyrS2-2C1F-BztA-Gln-NH2]
501	CC(=O)N1CCC[C@]12CC=CCCCC1(CCCC=CCCCOC(=O)N3CC[C@@](C(=O)N[C@@H](Cc4ccccc4)C(=O)N[C@@H](Cc4csc5ccccc45)C(=O)N[C@H](C(N)=O)[C@@H](C)O)(C3)NC(=O)[C@H](CC(N)=O)NC(=O)[C@H](Cc3ccccc3)NC(=O)[C@H](C)NC(=O)[C@H](CCCCNC(C)C)NC(=O)[C@H](CCC(N)=O)NC(=O)[C@H](CC(=O)O)NC1=O)NC(=O)[C@H](CC1CCCCC1)NC(=O)[C@H](CC(N)=O)NC2=O (stereo partly drawn) [I-2112, Ac-PL3-Asn-Cha-B5-Asp-Gln-iPrLys-Ala-Phe-Asn-PyrS2-Phe-BztA-Thr-NH2]
